For one test, the target named is ROCK1 (Homo sapiens (Human), UniProt Q13464). The test can be described thus: ROCK assay (LABCHIP peptide phosphorylation), ROCK1. The conditions noted are these: 5 μM ATP, 1.5 μM peptide substrate; read-out: ROCK1 IC50. In kind it is biochemical.
A further test has as its target ROCK2 (Homo sapiens (Human), UniProt O75116). As to the kind of experiment: ROCK assay (LABCHIP peptide phosphorylation), ROCK2. The format is biochemical. The conditions noted are these: 5 μM ATP, 1.5 μM peptide substrate.

Molecules are shown by their SMILES.

ROCK1, sequence (Q13464 whole entry, species assumed): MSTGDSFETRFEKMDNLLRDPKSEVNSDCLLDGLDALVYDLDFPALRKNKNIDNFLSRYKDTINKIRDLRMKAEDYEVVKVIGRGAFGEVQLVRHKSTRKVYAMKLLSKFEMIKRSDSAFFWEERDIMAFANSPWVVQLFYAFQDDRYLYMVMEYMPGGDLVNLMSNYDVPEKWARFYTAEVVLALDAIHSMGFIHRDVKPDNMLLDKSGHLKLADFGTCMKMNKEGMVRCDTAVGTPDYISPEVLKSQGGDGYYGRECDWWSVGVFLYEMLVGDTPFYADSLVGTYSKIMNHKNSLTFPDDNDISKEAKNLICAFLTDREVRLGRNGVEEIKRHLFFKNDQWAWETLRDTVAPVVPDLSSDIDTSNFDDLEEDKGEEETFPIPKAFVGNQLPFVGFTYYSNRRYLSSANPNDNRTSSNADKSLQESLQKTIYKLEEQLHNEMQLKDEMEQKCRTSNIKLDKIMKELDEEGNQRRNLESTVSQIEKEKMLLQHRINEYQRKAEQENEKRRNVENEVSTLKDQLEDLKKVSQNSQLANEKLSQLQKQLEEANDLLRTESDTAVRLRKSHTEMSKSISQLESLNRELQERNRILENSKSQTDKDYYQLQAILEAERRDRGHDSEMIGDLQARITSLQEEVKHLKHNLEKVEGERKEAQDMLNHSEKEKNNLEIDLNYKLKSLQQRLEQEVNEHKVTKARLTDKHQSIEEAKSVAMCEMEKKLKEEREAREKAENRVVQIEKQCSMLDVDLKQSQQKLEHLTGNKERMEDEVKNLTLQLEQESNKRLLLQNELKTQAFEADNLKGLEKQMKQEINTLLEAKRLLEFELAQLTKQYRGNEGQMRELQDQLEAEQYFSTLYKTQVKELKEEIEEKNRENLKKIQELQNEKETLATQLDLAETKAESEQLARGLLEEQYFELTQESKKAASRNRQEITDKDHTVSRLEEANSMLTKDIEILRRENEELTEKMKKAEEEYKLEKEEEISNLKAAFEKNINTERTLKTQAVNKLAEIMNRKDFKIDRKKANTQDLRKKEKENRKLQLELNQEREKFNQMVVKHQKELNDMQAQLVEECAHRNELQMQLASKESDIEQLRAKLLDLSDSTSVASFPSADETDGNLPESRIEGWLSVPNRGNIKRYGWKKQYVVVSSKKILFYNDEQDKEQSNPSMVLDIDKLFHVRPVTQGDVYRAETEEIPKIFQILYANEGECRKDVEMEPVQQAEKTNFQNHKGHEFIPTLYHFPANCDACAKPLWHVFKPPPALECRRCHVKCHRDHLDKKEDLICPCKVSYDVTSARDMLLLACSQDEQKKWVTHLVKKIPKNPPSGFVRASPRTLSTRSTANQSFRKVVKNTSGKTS
ROCK2, sequence (O75116 whole entry, species assumed): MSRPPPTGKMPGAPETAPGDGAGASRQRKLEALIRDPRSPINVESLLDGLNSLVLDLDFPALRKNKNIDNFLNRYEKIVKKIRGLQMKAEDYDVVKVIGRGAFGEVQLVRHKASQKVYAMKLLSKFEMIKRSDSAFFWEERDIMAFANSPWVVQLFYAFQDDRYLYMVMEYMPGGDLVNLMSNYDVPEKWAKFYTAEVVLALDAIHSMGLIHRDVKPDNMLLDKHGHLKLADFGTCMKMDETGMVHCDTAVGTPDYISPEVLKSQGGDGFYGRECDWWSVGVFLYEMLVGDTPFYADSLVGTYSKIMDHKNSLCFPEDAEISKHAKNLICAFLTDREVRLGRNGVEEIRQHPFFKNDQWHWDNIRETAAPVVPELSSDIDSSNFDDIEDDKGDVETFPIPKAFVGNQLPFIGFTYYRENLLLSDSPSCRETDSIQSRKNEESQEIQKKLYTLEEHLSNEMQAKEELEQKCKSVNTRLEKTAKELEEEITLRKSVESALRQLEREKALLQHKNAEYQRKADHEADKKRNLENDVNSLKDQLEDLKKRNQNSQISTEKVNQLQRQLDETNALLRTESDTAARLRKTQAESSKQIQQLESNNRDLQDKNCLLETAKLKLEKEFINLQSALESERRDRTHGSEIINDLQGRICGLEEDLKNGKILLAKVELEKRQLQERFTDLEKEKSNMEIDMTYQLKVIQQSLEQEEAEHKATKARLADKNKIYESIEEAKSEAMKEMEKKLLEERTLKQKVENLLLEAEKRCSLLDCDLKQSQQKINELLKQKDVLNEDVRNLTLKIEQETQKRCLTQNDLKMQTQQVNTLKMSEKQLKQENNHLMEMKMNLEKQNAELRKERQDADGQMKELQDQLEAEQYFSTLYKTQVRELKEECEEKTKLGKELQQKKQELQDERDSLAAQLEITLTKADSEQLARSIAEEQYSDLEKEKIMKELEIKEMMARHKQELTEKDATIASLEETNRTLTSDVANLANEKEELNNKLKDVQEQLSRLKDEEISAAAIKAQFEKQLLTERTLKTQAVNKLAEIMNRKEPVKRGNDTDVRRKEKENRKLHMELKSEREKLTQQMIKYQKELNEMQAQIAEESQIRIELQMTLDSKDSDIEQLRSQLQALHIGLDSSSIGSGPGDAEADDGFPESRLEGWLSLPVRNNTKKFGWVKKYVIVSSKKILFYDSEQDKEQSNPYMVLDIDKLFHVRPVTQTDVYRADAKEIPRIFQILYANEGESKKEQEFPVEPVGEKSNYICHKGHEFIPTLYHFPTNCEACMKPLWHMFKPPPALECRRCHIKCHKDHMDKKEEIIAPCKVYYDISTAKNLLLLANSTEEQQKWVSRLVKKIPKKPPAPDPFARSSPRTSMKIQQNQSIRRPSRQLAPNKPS

As for `CC(=O)N1CC(Cn2nc(C(=O)Nc3ccc(-c4n[nH]c(=O)c5ccccc45)c(Cl)c3)c3ccccc32)C1` [Example 329, 1-((1-Acetylazetidin-3-yl)methyl)-N-(3-chloro-4-(4-oxo-3,4-dihydrophthalazin-1-yl)phenyl)-1H-indazole-3-carboxamide], the IC50 at ROCK1 and at ROCK2 was 0.1 to 100 nM throughout.

Turning to `COc1ccc(-n2nnc(C)c2C(=O)Nc2ccc(-c3n[nH]c(=O)c4ccccc34)cc2)cc1` [Example 402, 1-(4-Methoxyphenyl)-4-methyl-N-(4-(4-oxo-3,4-dihydrophthalazin-1-yl)phenyl)-1H-1,2,3-triazole-5-carboxamide], the IC50 at ROCK1 is 101 to 1000 nM; at ROCK2, 0.1 to 100 nM.

With `O=C(Nc1ccc(-c2n[nH]c(=O)c3ccccc23)cc1)c1ccc(N2CCCC2)cc1` [Example 60], the 50% inhibitory concentration (IC50) on ROCK1 and against ROCK2 was 0.1 to 100 nM throughout.

Take `O=C(Nc1ccc(-c2n[nH]c(=O)c3ccccc23)cc1)c1cnn(-c2ccccc2Cl)c1` [Example 220, 1-(2-chlorophenyl)-N-[4-(4-oxo-3,4-dihydrophthalazin-1-yl)phenyl]-1H-pyrazole-4-carboxamide]: the IC50 on ROCK1 and at ROCK2 was 0.1 to 100 nM in each case.

In the case of `Cc1cc(NC(=O)c2c[nH]c3ncc(F)cc23)ccc1-c1n[nH]c(=O)c2ccccc12` [Example 308, 5-fluoro-N-[3-methyl-4-(4-oxo-3,4-dihydrophthalazin-1-yl)phenyl]-1H-pyrrolo [2,3-b]pyridine-3-carboxamide], the 50% inhibitory concentration (IC50) at ROCK1 and at ROCK2 was 0.1 to 100 nM throughout.

On to `Cn1nc2ccccc2c1C(=O)Nc1ccc(-c2n[nH]c(=O)c3ccccc23)cc1` [Example 131, 2-methyl-N-[4-(4-oxo-3,4-dihydrophthalazin-1-yl)phenyl]-2H-indazole-3-carboxamide], for which the half-inhibitory concentration (IC50) on ROCK1 and at ROCK2 was 0.1 to 100 nM throughout.

With `COc1ccc2c(c1)CN(C(=O)Cc1ccc(-c3n[nH]c(=O)c4ccccc34)cc1)C2` [Example 3, 4-(4-(2-(5-Methoxyisoindolin-2-yl)-2-oxoethyl)phenyl)phthalazin-1(2H)-one], the IC50 at ROCK1 fell in the range of 101 to 1000 nM; on ROCK2, 0.1 to 100 nM.

Regarding `CC(C)(O)Cn1cc(C(=O)Nc2ccc(-c3n[nH]c(=O)c4ccccc34)cc2)cn1` [Example 377, 1-(2-Hydroxy-2-methylpropyl)-N-(4-(4-oxo-3,4-dihydrophthalazin-1-yl)phenyl)-1H-pyrazole-4-carboxamide], the IC50 on ROCK1 was 1000 to 50000 nM; against ROCK2, 0.1 to 100 nM.

Consider `O=C(Cc1ccc(-c2n[nH]c(=O)c3ccccc23)cc1)N1CCc2ccccc21` [Example 23, 4-{4-[2-(2,3-dihydro-1H-indol-1-yl)-2-oxoethyl]phenyl}-1,2-dihydrophthalazin-1-one], for which the IC50 at ROCK1 lay in the range of 101 to 1000 nM; against ROCK2, 0.1 to 100 nM.

As for `CC(C)Oc1ccc2cc(C(=O)Nc3ccc(-c4n[nH]c(=O)c5ccccc45)cc3)[nH]c2c1` [Example 128, N-[4-(4-oxo-3,4-dihydrophthalazin-1-yl)phenyl]-6-(propan-2-yloxy)-1H-indole-2-carboxamide], the IC50 on ROCK1 and at ROCK2 was 0.1 to 100 nM each time.

For `O=C(Nc1ccc(-c2n[nH]c(=O)c3ccccc23)cc1)c1cnn2cc(OCCN3CCCC3)ccc12` [Example 176, N-[4-(4-oxo-3,4-dihydrophthalazin-1-yl)phenyl]-6-[2-(pyrrolidin-1-yl)ethoxy]pyrazolo[1,5-a]pyridine-3-carboxamide], the IC50 at ROCK1 and at ROCK2 was 0.1 to 100 nM in each case.

With `O=C(Cc1ccc(-c2n[nH]c(=O)c3ccccc23)cc1)N[C@@H]1CCc2ccccc21` [Example 81, (R)—N-(2,3-Dihydro-1H-inden-1-yl)-2-(4-(4-oxo-3,4-dihydrophthalazin-1-yl)phenyl)acetamide], the IC50 at ROCK1 was in the range of 1000 to 50000 nM; at ROCK2 it was 101 to 1000 nM.

Regarding `O=C(Nc1ccc(-c2n[nH]c(=O)c3ccccc23)cc1)c1nn(Cc2ccccn2)c2ccccc12` [Example 160, N-[4-(4-oxo-3,4-dihydrophthalazin-1-yl)phenyl]-1-(pyridin-2-ylmethyl)-1H-indazole-3-carboxamide], the IC50 on ROCK1 and on ROCK2 was 0.1 to 100 nM each time.

`CCOc1ccc2oc(C)c(C(=O)Nc3ccc(-c4n[nH]c(=O)c5ccccc45)cc3)c2c1` [Example 100, 5-ethoxy-2-methyl-N-[4-(4-oxo-3,4-dihydrophthalazin-1-yl)phenyl]-1-benzofuran-3-carboxamide]: the IC50 on ROCK1 and against ROCK2 was 0.1 to 100 nM each time.

On to `CC(C)(O)CNC(=O)CCn1nc(C(=O)Nc2ccc(-c3n[nH]c(=O)c4ccccc34)cc2)c2ccccc21` [Example 336, 1-(3-((2-Hydroxy-2-methylpropyl)amino)-3-oxopropyl)-N-(4-(4-oxo-3,4-dihydrophthalazin-1-yl)phenyl)-1H-indazole-3-carboxamide], for which the IC50 on ROCK1 and against ROCK2 was 0.1 to 100 nM throughout.

On to `O=C(Nc1ccc(-c2n[nH]c(=O)c3ccccc23)cc1)c1cnn(-c2ccccc2)c1Cl` [Example 199, 5-chloro-N-[4-(4-oxo-3,4-dihydrophthalazin-1-yl)phenyl]-1-phenyl-1H-pyrazole-4-carboxamide], for which the IC50 on ROCK1 and at ROCK2 was 0.1 to 100 nM throughout.

As for `O=C(Nc1ccc(-c2n[nH]c(=O)c3ccccc23)cc1)c1cn2ccncc2n1` [Example 133, N-[4-(4-oxo-3,4-dihydrophthalazin-1-yl)phenyl]imidazo[1,2-a]pyrazine-2-carboxamide], the IC50 was 101 to 1000 nM on ROCK1 and 0.1 to 100 nM against ROCK2.

Regarding `O=C(Nc1ccc(-c2n[nH]c(=O)c3ccccc23)cc1)C1CC(=O)N(c2ccccc2)C1` (centres unmarked) [Example 217, 5-oxo-N-[4-(4-oxo-3,4-dihydrophthalazin-1-yl)phenyl]-1-phenylpyrrolidine-3-carboxamide], the figures for the IC50 at ROCK1 and against ROCK2 were 1000 to 50000 nM and 101 to 1000 nM, respectively.

With `O=C(Nc1ccc(-c2n[nH]c(=O)c3ccccc23)cc1)c1cnn(CCC(F)(F)F)c1` [Example 398, N-(4-(4-Oxo-3,4-dihydrophthalazin-1-yl)phenyl)-1-(3,3,3-trifluoropropyl)-1H-pyrazole-4-carboxamide], the IC50 fell in the range of 101 to 1000 nM at ROCK1 and 0.1 to 100 nM on ROCK2.

Regarding `O=C(Cc1ccc(-c2n[nH]c(=O)c3ccccc23)cc1)N1Cc2ccc(F)cc2C1` [Example 2, 4-(4-(2-(5-Fluoroisoindolin-2-yl)-2-oxoethyl)phenyl)phthalazin-1 (2H)-one], the IC50 on ROCK1 fell in the range of 101 to 1000 nM; against ROCK2 it was 0.1 to 100 nM.

Turning to `O=C(Cc1ccc(-c2n[nH]c(=O)c3ccccc23)cc1)Nc1ccccc1` [Example 20, 2-[4-(4-oxo-3,4-dihydrophthalazin-1-yl)phenyl]-N-phenylacetamide], the IC50 on ROCK1 was in the range of 1000 to 50000 nM; against ROCK2 it was 101 to 1000 nM.

Consider `Cc1onc(NC(=O)Cc2ccc(-c3n[nH]c(=O)c4ccccc34)cc2)c1C` [Example 280, N-(dimethyl-1,2-oxazol-3-yl)-2-[4-(4-oxo-3,4-dihydrophthalazin-1-yl)phenyl]acetamide], for which the IC50 at ROCK1 lay within 101 to 1000 nM; at ROCK2, 0.1 to 100 nM.

For the compound `Cc1cc(NC(=O)c2nn(CC3(C)COC3)c3ccccc23)ccc1-c1n[nH]c(=O)c2ccccc12` [Example 314, N-[3-methyl-4-(4-oxo-3,4-dihydrophthalazin-1-yl)phenyl]-1-[(3-methyloxetan-3-yl)methyl]-1H-indazole-3-carboxamide], the IC50 at ROCK1 and against ROCK2 was 0.1 to 100 nM in each case.

For the compound `O=C(Nc1ccc(-c2n[nH]c(=O)c3ccccc23)cc1)c1cnn(-c2ccccc2)c1C(F)(F)F` [Example 190, N-[4-(4-oxo-3,4-dihydrophthalazin-1-yl)phenyl]-1-phenyl-5-(trifluoromethyl)-1H-pyrazole-4-carboxamide], the IC50 at ROCK1 and at ROCK2 was 0.1 to 100 nM in each case.

Regarding `O=C(c1ccc2c(c1)N(C(=O)Cc1ccc(-c3n[nH]c(=O)c4ccccc34)cc1)CC2)N1CCC(O)CC1` [Example 295, 4-(4-{2-[6-(4-hydroxypiperidine-1-carbonyl)-2,3-dihydro-1H-indol-1-yl]-2-oxoethyl}phenyl)-1,2-dihydrophthalazin-1-one], the values for the IC50 at ROCK1 and on ROCK2 were 101 to 1000 nM and 0.1 to 100 nM, respectively.

Consider `CC1Cc2ccccc2N1C(=O)Cc1ccc(-c2n[nH]c(=O)c3ccccc23)cc1` (centres unmarked) [Example 40, 4-{4-[2-(2-methyl-2,3-dihydro-1H-indol-1-yl)-2-oxoethyl]phenyl}-1,2-dihydrophthalazin-1-one], for which the results for the IC50 on ROCK1 and at ROCK2 were 101 to 1000 nM and 0.1 to 100 nM, respectively.

On to `COc1ccccc1-n1nnc(C(=O)Nc2ccc(-c3n[nH]c(=O)c4ccccc34)cc2)c1C` [Example 405, 1-(2-Methoxyphenyl)-5-methyl-N-(4-(4-oxo-3,4-dihydrophthalazin-1-yl)phenyl)-1H-1,2,3-triazole-4-carboxamide], for which the IC50 on ROCK1 and against ROCK2 was 0.1 to 100 nM each time.

For the compound `Cc1c(C(=O)Nc2ccc(-c3n[nH]c(=O)c4ccccc34)cc2)nnn1-c1ccccc1` [Example 400, 5-Methyl-N-(4-(4-oxo-3,4-dihydrophthalazin-1-yl)phenyl)-1-phenyl-1H-1,2,3-triazole-4-carboxamide], the IC50 at ROCK1 and at ROCK2 was 0.1 to 100 nM each time.

As for `COc1ccc2c(=O)[nH]cc(-c3ccc(CC(=O)N4CCc5ccc(OCC(C)(C)O)cc54)cc3)c2c1` [Example 289, 4-(4-(2-(6-(2-Hydroxy-2-methylpropoxy)indolin-1-yl)-2-oxoethyl)phenyl)-6-methoxyisoquinolin-1(2H)-one], the IC50 on ROCK1 and at ROCK2 was 0.1 to 100 nM throughout.

As for `O=C(Nc1ccc(-c2n[nH]c(=O)c3ccccc23)cc1)c1cnn2ccc(OCCN3CCOCC3)cc12` [Example 187, 5-[2-(morpholin-4-yl)ethoxy]-N-[4-(4-oxo-3,4-dihydrophthalazin-1-yl)phenyl]pyrazolo[1,5-a]pyridine-3-carboxamide], the concentration for half-maximal inhibition (IC50) on ROCK1 and at ROCK2 was 0.1 to 100 nM throughout.

Turning to `O=C(Nc1ccc(-c2n[nH]c(=O)c3ccccc23)cc1)c1ccn(-c2ccccc2)n1` [Example 226, N-[4-(4-oxo-3,4-dihydrophthalazin-1-yl)phenyl]-1-phenyl-1H-pyrazole-3-carboxamide], the IC50 at ROCK1 and on ROCK2 was 0.1 to 100 nM each time.

As usually defined, the IC50 is the midpoint of a concentration-inhibition curve.

The values are drawn from US9926282B2, “Phthalazinones and isoquinolinones as rock inhibitors” (BRISTOL-MYERS SQUIBB COMPANY, priority 2013, dated 2018).
